The values below come from ChEMBL document CHEMBL4842340, “Development of Cagrilintide, a Long-Acting Amylin Analogue” (J Med Chem, 2021).

≈ marks a conversion by molar mass, not a printed value. *1 amine or outer side, *2 acyl side, *3 side chain or, on linkers, in order; H or OH if unused. Where a SMILES comes first, the peptide text is derived from it. Bridges are numbered along the chain shown (N, C = ends). The star is where a group is joined. C20 diacid = O=C(O)CCCCCCCCCCCCCCCCCCC(=O)*; γGlu = O=C(O)[C@H](CCC(=O)[*:2])N[*:1]

Series [1] in a line: Agonist activity at rat AMY3R (CT+RAMP3) expressed in tk-ts13 cells assessed as increase in intracellular cAMP level incuabted for 25 mins by CRE luciferase reporter gene assay. The class given is cell-based. To be noted: tk-ts13, 25 min. A general note: cAMP levels reflect the balance of adenylyl cyclase and phosphodiesterase activity.
The species named for series [2] is Rattus norvegicus. Briefly: Ratio of EC50 for rat calcitonin receptor expressed in BHK-13 cells to EC50 for rat AMY3R (CT+RAMP3) expressed in tk-ts13 cells. The class given is cell-based.
Series [3] in a line: Solubility of the compound in lactate at pH 4 by UPLC analysis. In kind it is physicochemical. To be noted: lactate buffer.
Series [4] is described as follows: Agonist activity at human calcitonin receptor expressed in BHK570 cells assessed as increase in intracellular cAMP concentration incubated for 3 hrs in absence of albumin by CRE luciferase reporter gene assay. To be noted: BHK570, 3 h. In kind it is cell-based.
A short description of series [5]: Solubility of the compound in bis-tris propane at pH 6 by UPLC analysis. In kind it is physicochemical. To be noted: bis-tris propane buffer.
A short description of series [6]: Agonist activity at human AMY3R (CT+RAMP3) expressed in Hollex1 cells incubated for 3 hrs by luminescence assay. The class given is cell-based. To be noted: Hollex1, 3 h.
The nature of series [7]: Agonist activity at rat calcitonin receptor expressed in BHK-13 cells assessed as increase in intracellular cAMP concentration incubated for 25 mins by CRE luciferase reporter gene assay. To be noted: BHK-13, 25 min. In kind it is cell-based. Background: Reporter assays use an easily measured gene product as a stand-in for the process of interest.
Series [8] in a line: Solubility of the compound in lactate at pH 5 by UPLC analysis. The class given is physicochemical. To be noted: lactate buffer.
Series [9] in a line: Solubility of the compound in lactate at pH 3 by UPLC analysis. The class given is physicochemical. To be noted: lactate buffer.
Series [10] concerns the target Insulin (Homo sapiens) (UniProt P01308). Briefly: Effect on insulin (unknown origin) amyloid fibril formation assessed as lag time in glycyl-glycine buffer at pH 4 measured after 45 hrs by thioflavin-T fluorescence assay.
Series [11] in a line: Solubility of the compound in bis-tris propane at pH 7 by UPLC analysis. The class given is physicochemical. To be noted: bis-tris propane buffer.
For series [12], the system named is Rattus norvegicus. In words: Reduction in food intake in Sprague-Dawley rat at 30 nmol/kg, sc administered as single dose measured upto 24 hrs relative to control. In kind it is functional. More on the design: scale not given: the % may be the effect or the level left. To be noted: time hrs <=24.
Series [13] can be described thus: Solubility of the compound in bis-tris propane at pH 6.5 by UPLC analysis. In kind it is physicochemical. To be noted: bis-tris propane buffer.
Series [14] has as its target Insulin (Homo sapiens) (UniProt P01308). In words: Effect on insulin (unknown origin) amyloid fibril formation assessed as peptide recovery in glycyl-glycine buffer at pH 4 measured after 45 hrs by thioflavin-T fluorescence assay relative to control. Details: concentration or dose not given beside the values.
The species entered for series [15] is Homo sapiens. In words: Ratio of EC50 for human calcitonin receptor expressed in BHK570 cells to EC50 for human AMY3R (CT+RAMP3) expressed in Hollex1 cells. The class given is cell-based.
Series [16] deals with Rattus norvegicus. In words: Reduction in food intake in Sprague-Dawley rat at 30 nmol/kg, sc administered as single dose measured after 24 to 48 hrs relative to control. In kind it is functional. More on the design: scale not given: the % may be the effect or the level left. To be noted: time 24-48 hrs.

Sequence of Insulin (Homo sapiens) (P01308 whole entry): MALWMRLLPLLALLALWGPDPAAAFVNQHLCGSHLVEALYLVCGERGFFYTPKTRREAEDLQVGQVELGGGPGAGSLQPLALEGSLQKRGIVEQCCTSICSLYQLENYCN

`CC[C@H](C)[C@H](NC(=O)[C@@H]1CCCN1C(=O)CNC(=O)[C@H](Cc1ccccc1)NC(=O)[C@H](CC(N)=O)NC(=O)[C@H](CC(N)=O)NC(=O)[C@H](CO)NC(=O)[C@H](CO)NC(=O)[C@H](Cc1cnc[nH]1)NC(=O)[C@H](Cc1cnc[nH]1)NC(=O)[C@H](CC(C)C)NC(=O)[C@H](Cc1ccccc1)NC(=O)[C@H](CCCNC(=N)N)NC(=O)[C@H](C)NC(=O)[C@H](CC(C)C)NC(=O)[C@H](CCCNC(=N)N)NC(=O)[C@H](CCC(N)=O)NC(=O)[C@@H](NC(=O)[C@H](C)NC(=O)[C@@H]1CSSC[C@H](NC(=O)[C@H](Cc2cnc[nH]2)NC(=O)[C@H](Cc2cnc[nH]2)NC(=O)[C@H](Cc2cnc[nH]2)NC(=O)CC[C@H](NC(=O)CCCCCCCCCCCCCCCCCCC(=O)O)C(=O)O)C(=O)N[C@@H](CC(N)=O)C(=O)N[C@@H]([C@@H](C)O)C(=O)N[C@@H](C)C(=O)N[C@@H]([C@@H](C)O)C(=O)N1)[C@@H](C)O)C(=O)N[C@@H](CC(C)C)C(=O)N1CCC[C@H]1C(=O)N1CCC[C@H]1C(=O)N[C@H](C(=O)N[C@@H](CC(N)=O)C(=O)N[C@H](C(=O)NCC(=O)N[C@@H](CO)C(=O)N[C@@H](CC(N)=O)C(=O)N[C@H](C(=O)N[C@@H](Cc1ccc(O)cc1)C(N)=O)[C@@H](C)O)C(C)C)[C@@H](C)O` ({C20 diacid-γGlu}-HHHCNTATCATQRLARFLHHSSNNFGPILPPTNVGSNTY-NH2; disulfide 4-9): the EC50 in [1] turned out to be 0.143 nM; in series [4] it was 0.398 nM; in series [6], 0.069 nM; in series [7], 7.09 nM. Also, the Ratio EC50 amounted to 50 in [2] and 6 in series [15]. The solubility in [3] came to 200 µM (≈ 953 µg/mL); in [5], 200 µM (≈ 953 µg/mL); in [8], 200 µM (≈ 953 µg/mL); in [9] it was 200 µM (≈ 953 µg/mL); in series [11], 1 µM (≈ 4.77 µg/mL); in [13], 117 µM (≈ 558 µg/mL). In addition, the TIME in series [10] came out at 10 h. The Activity in series [12] turned out to be 65%; in series [14], 10%; in series [16] it was 25%.

For `CC[C@H](C)[C@H](NC(=O)[C@@H]1CCCN1C(=O)CNC(=O)[C@H](Cc1ccccc1)NC(=O)[C@H](CC(N)=O)NC(=O)[C@H](CC(N)=O)NC(=O)[C@H](CO)NC(=O)[C@H](CO)NC(=O)[C@H](Cc1cnc[nH]1)NC(=O)[C@H](CCCNC(=N)N)NC(=O)[C@H](CC(C)C)NC(=O)[C@H](Cc1ccccc1)NC(=O)[C@H](CCC(=O)O)NC(=O)[C@H](C)NC(=O)[C@H](CC(C)C)NC(=O)[C@H](CCCNC(=N)N)NC(=O)[C@H](CCC(N)=O)NC(=O)[C@@H](NC(=O)[C@H](C)NC(=O)[C@@H]1CSSC[C@H](NC(=O)[C@H](Cc2cnc[nH]2)NC(=O)[C@H](Cc2cnc[nH]2)NC(=O)[C@H](Cc2cnc[nH]2)NC(=O)CC[C@H](NC(=O)CCCCCCCCCCCCCCCCCCC(=O)O)C(=O)O)C(=O)N[C@@H](CC(N)=O)C(=O)N[C@@H]([C@@H](C)O)C(=O)N[C@@H](C)C(=O)N[C@@H]([C@@H](C)O)C(=O)N1)[C@@H](C)O)C(=O)N[C@@H](CC(C)C)C(=O)N1CCC[C@H]1C(=O)N1CCC[C@H]1C(=O)N[C@H](C(=O)N[C@@H](CC(N)=O)C(=O)N[C@H](C(=O)NCC(=O)N[C@@H](CO)C(=O)N[C@@H](CC(N)=O)C(=O)N[C@H](C(=O)N[C@@H](Cc1ccc(O)cc1)C(N)=O)[C@@H](C)O)C(C)C)[C@@H](C)O` ({C20 diacid-γGlu}-HHHCNTATCATQRLAEFLRHSSNNFGPILPPTNVGSNTY-NH2; disulfide 4-9), the EC50 is 0.082 nM in series [1], 0.407 nM in [4], 0.072 nM in series [6] and 6.76 nM in [7]. The Ratio EC50 stood at 82 in series [2] and 6 in series [15]. Further, the solubility in [3] was 200 µM (≈ 952 µg/mL); in series [5], 200 µM (≈ 952 µg/mL); in [8] it was 200 µM (≈ 952 µg/mL); in series [9] it was 200 µM (≈ 952 µg/mL); in [11] it was 9 µM (≈ 42.8 µg/mL). For the same molecule, in series [10], the TIME was 45 h. For the same molecule, the Activity amounted to 70% in series [12], 50% in series [14] and 45% in [16].

As usually defined, the EC50 is the concentration giving half of the maximal effect. As a reminder, the solubility is how much of the substance goes into solution per volume.
